Earlier results, collected in patent US8735374B2, “Oral mucoadhesive dosage form” (Intelgenx Corp., priority 2009, dated 2014).
Where “and” joins values, the source holds several entries; their conditions need not be identical. Equal values may be shown once.

Conditions: oral administration; first pass hepatic metabolism, high lipid solubility

CCCCCc1cc(O)c2c(c1)OC(C)(C)[C@@H]1CCC(C)=C[C@@H]21 [THC, Δ^9-tetrahydrocannabinol]
portion of an administered dose that reaches systemic circulation: 10 to 20% and 10-20%
